Assay results reported in patent US12016943B2, “Antiperspirant or deodorant composition” (Firmenich SA, priority 2016, dated 2024).

Experiments:
Type in all cases: physicochemical
[1] = Assessment of coloration of deodorant or antiperspirant formulations containing perfuming ingredients with or without Haloscent D; set-up: key: CO: color; COYE: yelow color; VSCOYE: very slight yellow color; SCOYE: slight yellow color; VCOYE: very yellow color; NC: no color; DECO: decoloration; CL: cloud; VCL: very cloud; WH: white; VCOBR: very brown color; COPI: ping color; conditions: perfuming ingredient 0.5 wt %, after 15 days
Method: (§1) Preparation of an Antiperspirant Spray Formulation: Using a high speed stirrer, Silica (Table 1) and Quaternium-18-Hectorite (Table 1) were added to the Isopropyl miristate (Table 1) and Cyclomethicone mixture (Table 1). Once completely swollen, Aluminium Chlorohydrate (Table 1) was added portion wise under stirring until the mixture was homogeneous and without lumps. The aerosol cans were filled with 25% Suspension of the suspension and 75% of Propane/Butane (2.5 bar).
(§2) Preparation of Deodorant Spray Formulation: All the ingredients according to the sequence of the Table 2 were mixed and dissolved. Then the aerosol cans were filled, crimp and add the propellant (Aerosol filling: 40% active solution 60% Propane/Butane 2.5 bar).
(§3) Part A was prepared by sprinkling little by little the Hydroxyethylcellulose (Table 3) in the water (Table 3) whilst rapidly stirring with the turbine. Stirring was continued until the Hydroxyethylcellulose had entirely swollen and giving a limpid gel. Then, Part B (Table 3) was poured little by little in Part A whilst continuing stirring until the whole was homogeneous. Part C was added (Table 3).
(§4) Preparation of a Deodorant Stick Formulation: All the components of Part A were weighted (Table 4) and heated up to 70-75° C. Ceteareth-25 (Table 4) was added once the other Part A ingredients were mixed and heated. Once the Ceteareth-25 was dissolved, the Stearic Acid was added. Part B was prepared by dissolving the Triclosan (Table 4) in 1,2 Propylene Glycol (Table 4). Water which has evaporated was added. Slowly under mixing, Part B was poured into part A. To stock, a plastic bag into the bucket was put in to be sealed after cooling. Moulds was filled at about 70° C.
(§5) Preparation of an Antiperspirant Stick Formulation: All the components of Part A were weighted (Table 5), heated up to 70-75° C. and mixed well. Ingredient of Part B was dispersed in Part A. The mixture was mixed and putted into a tick at 65° C.
(§6) Assessment of Coloration in the Perfuming Ingredients: To set of deodorant or antiperspirant formulations of point a) to e) has been prepared. A perfuming ingredient (0.5 wt %—Table 6, 7 and 8) was added to the first set a and a perfuming ingredient (0.5 wt %—Table 6, 7 and 8) and Haloscent® D (0.5 wt %) were added to the second set. All these formulations were placed at 3° C. and 45° C. for several weeks. All formulations were evaluated in comparison with unperfumed deodorant or antiperspirant formulation. The coloration of each formulation was assessed by a minimum of 2 panelists.

[2] = as above; set-up: key to Coloration of antiperspirant stick: CO: color; COYE: yelow color; VSCOYE: very slight yellow color; SCOYE: slight yellow color; VCOYE: very yellow color; NC: no color; DECO: decoloration; CL: cloud; VCL: very cloud; WH: white; VCOBR: very brown color; COPI: ping color; conditions: perfuming ingredient 0.5 wt %; for Coloration of antiperspirant stick: after 7 days
Method: as §1, §2, §3, §4, §5, §6

[3] = as above; set-up: key: CO: color; COYE: yellow color; SCOYE: slight yellow color; VCOYE: very yellow color; NC: no color; DECO: discoloration; CL: cloud; VCL: very cloud; WH: white; VCOBR: very brown color; COPI: ping color; conditions: perfuming ingredient 0.5 wt %, after 15 days; for Coloration of deodorant spray: DEO SPRAY + Haloscent D 0.5 wt %
Method: as §1, §2, §3, §4, §5, §6

[4] = DEO ROLL-ON + Haloscent D 0.5 wt %, 3° C.
[5] = DEO ROLL-ON + Haloscent D 0.5 wt %, 45° C.
[6] = DEO STICK + Haloscent D 0.5 wt %, 3° C.
[7] = DEO STICK + Haloscent D 0.5 wt %, 45° C.
[8] = AP Stick + Haloscent D 0.5 wt %, 3° C.
[9] = AP Stick + Haloscent D 0.5 wt %, 45° C.
[10] = AP SPRAY + Haloscent D 0.5 wt %, 3° C.
[11] = AP SPRAY + Haloscent D 0.5 wt %, 45° C.
[12] = DEO SPRAY + Haloscent D 0.5 wt %, 3° C.
[13] = DEO SPRAY + Haloscent D 0.5 wt %, 45° C.

Molecule	Coloration of deodorant roll-on [1, 4]	Coloration of deodorant roll-on [1, 5]	Coloration of deodorant roll-on ([1]; DEO ROLL-ON, 3° C.)	Coloration of deodorant roll-on ([1]; DEO ROLL-ON, 45° C.)	Coloration of deodorant stick [1, 6]	Coloration of deodorant stick [1, 7]	Coloration of deodorant stick ([1]; DEO STICK, 3° C.)	Coloration of deodorant stick ([1]; DEO STICK, 45° C.)	Coloration of antiperspirant stick [2, 8]	Coloration of antiperspirant stick [2, 9]	Coloration of antiperspirant stick ([2]; AP Stick, 3° C.)	Coloration of antiperspirant stick ([2]; AP Stick, 45° C.)	Coloration of antiperspirant spray ([1]; AP SPRAY, 3° C.)	Coloration of antiperspirant spray ([1]; AP SPRAY, 45° C.)	Coloration of deodorant spray [1, 12]	Coloration of deodorant spray [1, 13]	Coloration of deodorant spray ([1]; DEO SPRAY, 3° C.)	Coloration of deodorant spray ([1]; DEO SPRAY, 45° C.)	Coloration of deodorant roll-on [3, 5]	other results
1-(3,3-dimethyl-1-cyclohexen-1-yl)-4-penten-1-one (A) + 1-(5,5-dimethyl-1-cyclohexen-1-yl)-4-penten-1-one (B) [DYNASCONE]	WH	SCOYE	VCL	NC	SCOYE	VCOYE	NC	VCOYE												
CC(C)=CCCC(C)CCO (racemic) [(+−)-3,7-DIMETHYL-6-OCTEN-1-OL]	NC	NC	NC	NC	SCOYE	NC	NC	NC	VSCOYE	VSCOYE	DECO	DECO	NC	NC	NC	NC	NC	NC		Coloration of antiperspirant spray [1, 10]: SCOYE; Coloration of antiperspirant spray [1, 11]: SCOYE
c1ccc2[nH]ccc2c1 [2,3-BENZOPYRROLE]	NC		NC	NC	NC	NC	NC	SCOYE	COPI	VSCOYE	DECO	VSCOYE								Coloration of deodorant roll-on ([2]; DEO ROLL-ON + Haloscent D 0.5 wt %, 45° C., after 15 days): VSCOYE
C=C(CC)CCCC(C)(C)O [2-METHYL-6-METHYLIDENEOCTAN-2-OL]	NC	NC	NC	NC	SCOYE	NC	NC	NC												
CCCCCOC(=O)c1ccccc1O [AMYLE SALICYLATE, PENTYL 2-HYDROXYBENZOATE]	WH	VCL	VCL	NC	NC	NC	NC	NC	VSCOPI	VSCOPI	VSCOPI	NC								
CC(C)c1ccc2c(c1)OCC(=O)CO2 [CALONE, 7-ISOPROPYL-2H,4H-1,5-BENZODIOXEPIN-3-ONE]	NC	CO	NC		COPI	VCOBR	COPI	VCOBR						SCOYE	CO	CO	CO	CO		Coloration of antiperspirant spray [3, 10]: COYE; Coloration of antiperspirant spray [3, 11]: COYE; Coloration of antiperspirant spray ([3]; AP SPRAY, 3° C.): COYE; Coloration of deodorant roll-on ([3]; DEO ROLL-ON, 45° C.): DECO
O=C1CC/C=C\CCCCCCCCCC1 [EXALTENONE, (Z)-4-CYCLOPENTADECEN-1-ONE]	WH	CL	VCL	VCL	NC	NC	NC	NC					NC	NC			NC	NC		Coloration of antiperspirant spray [1, 10]: NC; Coloration of antiperspirant spray [1, 11]: NC; Coloration of deodorant spray ([3]; 3° C.): COYE; Coloration of deodorant spray ([3]; 45° C.): COYE
CCC(=O)OCC(=O)O[C@@H](C)[C@@H]1CCCC(C)(C)C1 [ROMANDOLIDE, 2-{(1S)-1-[(1R)-3,3-dimethylcyclohexyl]ethoxy}-2-oxoethyl propionate]	VCL		VCL	NC	NC	NC	NC	NC											COYE	
(+−)-(3E)-3-methyl-4-(2,6,6-trimethyl-2-cyclohexen-1-yl)-3-buten-2-one (A) + (+−)-(1E)-1-(2,6,6-trimethyl-2-cyclohexen-1-yl)-1-penten-3-one (B) [ISORALDEINE 70P]	WH		VCL	NC	NC	VCOYE	NC	VCOYE											COYE	
(+−)-(4E)-3-METHYL-4-CYCLOPENTADECEN-1-ONE (A) + (+−)-(5E)-3-METHYL-5-CYCLOPENTADECEN-1-ONE (B) + (+−)-(5Z)-3-METHYL-5-CYCLOPENTADECEN-1-ONE (C) [MUSCENONE DELTA]	WH		VCL	SCOYE	NC	NC	NC	NC					NC	NC	NC	NC	NC	NC	COYE	Coloration of antiperspirant spray [3, 10]: COYE; Coloration of antiperspirant spray [3, 11]: COYE
